Assay type in all cases: cell-based, Toxoplasma gondii
The test system of experiment [1] is T. gondii. As to the kind of experiment: Tachyzoite to bradyzoite conversion (P34 marker and Hsp90 subcellular localization by IFA). The settings on record: RH ΔUPRT strain, bradyzoite conditions 4 days, 100 nM GA. Here is the method:
FIG. 6 is two graphs showing that GA blocks tachyzoite to bradyzoite conversion. Parasites were grown under bradyzoite differentiation conditions for 4 days in the presence of 100 nM of GA or DMSO. FIG. 6A is RH UPRT knock-out parasites, and FIG. 6B is PK parasites. The y-axes depict the number of parasites/PV cysts. Cytoplasmic (c) and nuclear (n) Hsp90 localization was determined by IFA with rabbit anti-T. gondii Hsp90 serum. Parasites were also stained with the bradyzoite-specific marker p34 and scored as P34 positive (p34+) or negative (p34−). The number of P34−/Hsp90c; P34−/Hsp90c,n; P34+/Hsp90c; and P34+/Hsp90c,n per 100 PV-Cysts was counted at random, in three independent experiments.
RH UPRT knock-out parasites can be induced to differentiate into bradyzoites in low CO2, resulting in pyrimidine starvation. (Bohne et al., (eds) (1997) Stage-specific expression of a selectable marker in T. gondii permits selective inhibition of either tachyzoites or bradyzoites Vol. 88. Mol Biochem Parasitol; Bohne et al., (1997) Mol Biochem Parasitol 88, 115-126). […] Bradyzoite induction under this method was assessed and followed by cyst wall detection using the Dolichos biflorus lectin (Boothroyd et al., (1997) Philos Trans R Soc Lond B Biol Sci 352, 1347-1354). […]

For experiment [2], the system named is T. gondii. As to the kind of experiment: Parasite replication rate under bradyzoite differentiation conditions (parasites per PV-cyst, IFA). The settings on record: 4 days, 100 nM GA. On the procedure: FIG. 5 is a graph showing that geldanamycin A (GA) affects bradyzoite replication rate. PK strain (an avirulent derivative of the Me49 strain) and ΔUPRT strain (a strain with a stage-specific selectable marker) parasites were grown under bradyzoite differentiation conditions for 4 days in the presence of 100 nM of GA or DMSO. IFAs were carried out with rabbit anti-T. gondii Hsp90 serum. Fluorescent parasites were counted and the number of parasites per parasitophorous vacuole (PV)-cysts was graphed. One hundred PV-cysts were counted. Student t test was performed by Prism3™ program (Graphpad). *p 0.05, **p 0.01. The y-axis represents the number of parasites/PV-cysts.
RH UPRT knock-out parasites can be induced to differentiate into bradyzoites in low CO2, resulting in pyrimidine starvation. […] Bradyzoite induction under this method was assessed and followed by cyst wall detection using the Dolichos biflorus lectin (Boothroyd et al., (1997) Philos Trans R Soc Lond B Biol Sci 352, 1347-1354). […]
GA (InvivoGen, San Diego, Calif.) was dissolved in dimethyl sulfoxide (DMSO) at […]. […] For replication rate studies, the number of parasites per parasitophorous vacuole or cysts (PV-Cyst) was determined for at least 100 PV-Cyst per treatment (GA or DMSO) in replicate experiments. […] Analysis of intracellular localization of Hsp90 was assessed in the same way but using rabbit anti-TgHsp90 serum. […]

For another experiment, the system named is T. gondii bradyzoites. Kind of experiment: In vitro transformation of encysted bradyzoites into tachyzoites (P21/SAG1 markers and Hsp90 localization by IFA). Here is the method:
Released PK bradyzoites from brain cysts of infected mice were incubated with 100 nM GA or DMSO for 2 hours, washed, inoculated onto a confluent HFF monolayers, and grown under tachyzoite conditions. IFAs were performed at 4 and 24 hours post-inoculation. To identify mature bradyzoites, parasites were stained using a monoclonal anti-p21 antibody, and tachyzoites were stained using rabbit anti-SAG1. […] The y-axis depicts the number of parasites per/PV-cysts, and the x-axis depicts time in hours. […] The y-axis depicts the number of parasites per/PV-cysts, and the x-axis depicts time in hours. Parasites with cytoplasmic Hsp90 were treated with GA (Hsp90c-GA) or DMSO (Hsp90c-DMSO); parasites with cytoplasmic and nuclear Hsp90 were treated with GA (Hsp90c,n-GA) or DMSO (Hsp90n,c-DMSO). 100 PV-Cysts were counted at random in three independent experiments.
Cysts were isolated from brains of mice infected intraperitoneally 4 weeks before with PK or Me49 strain tachyzoites. Cysts were purified by isopycnic centrifugation on a percoll gradient and encysted bradyzoites were freed by trypsin digestion. In the case of GA experiments, free bradyzoites were incubated in culture media with GA […] or DMSO for 2 h, then parasites were pelleted and washed. One hundred thousand bradyzoites were inoculated onto 12 mm coverslips covered with a confluent monolayer of HFFs. Intracellular localization of Hsp90 was followed by IFA after 4 and 24 hours of infection using anti-Hsp90 serum (1:100). Monoclonal antibodies, specific to the tachyzoite surface protein SAG1 or to the bradyzoite specific protein P21 (mAb T84G10), were used to monitor stage conversion.
GA (InvivoGen, San Diego, Calif.) was dissolved in dimethyl sulfoxide (DMSO) at […]. The drug was diluted in normal culture media to the required concentrations prior to use. A range of concentrations from 1 nM to 5 μM were initially assayed to determine an effective concentration for subsequent experiments. DMSO was added in similar concentrations to control slides. For replication rate studies, the number of parasites per parasitophorous vacuole or cysts (PV-Cyst) was determined for at least 100 PV-Cyst per treatment (GA or DMSO) in replicate experiments. To measure the effect of GA on stage conversion, GA was added in bradyzoite induction experiments (as described above), slides were analyzed by IFA, and the number of P34 positive vacuoles was determined in both GA and DMSO treated cultures. Analysis of intracellular localization of Hsp90 was assessed in the same way but using rabbit anti-TgHsp90 serum. In the in vitro transformation of encysted bradyzoites into tachyzoites experiments, parasites were treated with GA (as described above) and then analyzed by IFA counting P21 and […] positive PV-Cysts in treated and control groups. For replication rate studies, the number of parasites per PV/cysts was determined for at least 100 PV-Cyst per treatment in replicate experiments.

[3] abbreviates: 24 hours, Me49 bradyzoites incubated 2 hours with GA, washed, tachyzoite conditions.
Where [4] appears, read: GA treated bradyzoites, time point not stated.

These results are taken from patent publication US7968096B2, “Methods and compositions for treating toxoplasma” (priority 2005, dated 2011).

Take `COC1=C2C[C@@H](C)C[C@H](OC)[C@H](O)[C@@H](C)/C=C(\C)[C@H](OC(N)=O)[C@@H](OC)/C=C\C=C(/C)C(=O)NC(=CC1=O)C2=O` [GA, geldanamycin A]: the “parasite vacuoles showing P34- and Hsp90c (tachyzoite phenotype)” value in the experiment with T. gondii [1] is listed as “about 75%”. For the same compound, the “reduction of parasite growth compared to DMSO controls” value in the experiment with T. gondii [2] (PK strain) is on record as roughly 3 fold. For the same compound, the “reduction of parasite growth compared to DMSO controls” value with T. gondii [2] (RH strain) is given as roughly 2 fold. Besides, in the experiment on T. gondii bradyzoites (4 hours post-infection, all parasites (GA and DMSO), Me49 bradyzoites incubated 2 hours), the “P21 positive and SAG1 negative parasites” value was “more than 90%”. For the same compound, the “parasites exhibiting Hsp90c” value in the experiment with T. gondii bradyzoites (24 hours post-infection) is 100%. In the experiment with T. gondii bradyzoites (setting [3]), the SAG1 positive parasites entry is recorded as “less than 5%” and the “parasites remaining P21 positive” value was “more than 90%”. Besides, in the experiment with T. gondii bradyzoites (setting [4]), the “bradyzoites showing Hsp90c staining” value was 80% and the “bradyzoites showing Hsp90n,c staining pattern” value was 20%. In addition, in the experiment with T. gondii bradyzoites (bradyzoites treated with GA), the “reduction of level of invasion compared with DMSO treated parasites” value is listed as 40-66%.
